Laboratory results: paper PMC9618103, “Exploratory toxicology studies of 2,3-substituted imidazo[1,2-a]pyridines with antiparasitic and anti-inflammatory properties” (Toxicology Research, 2022)

Experiments:
[1] = system: Wistar rats; experiment: Subacute toxicity: serum alanine aminotransferase and alkaline phosphatase activity; assay type: in vivo; conditions: serum; rats, p.o., 14 days at 10% of LD50 (CCl4, APAP: once daily, 3 days); mean ± SEM, n = 6
Method: (§1) For toxicity tests, acclimatized rats were randomly allocated to 12 groups (n = 12 for the control and n = 6 for the rest groups). […] Meanwhile, the aforementioned vehicles (dose volume 2 mL/kg b.w.) were administered to 3 groups. […] Upon completion of the 14-day treatments and before sample collection, the bladders of animals were emptied by gentle pressure on the lower part of the abdomen to induce urination. The animals were then housed in individual metabolic cages to collect urine for a period of 6 h and then the volume was recorded. Afterward, blood samples were obtained and the serum was separated by centrifugation at 1,620 × g for 10 min at room temperature.
The activities of serum alanine aminotransferase (ALT) and alkaline phosphatase (ALP) were measured with standard kits (RANDOX, Laboratories Ltd, UK).

[2] = system: Wistar rats; experiment: Hepatic and renal reactive oxygen species (DCF formation); assay type: in vivo; conditions: rats, p.o., 14 days at 10% of LD50 (CCl4, APAP: once daily, 3 days), mean ± SEM, n = 6; for Renal ROS: kidney; for Hepatic ROS: liver
Method: as §1
Reactive oxygen species (ROS) were measured by formation of 2′,7′-dichlorofluorescein (DCF). An aliquot of 10 μL (kidney) or 5 μL (liver) of the homogenates was added to 1,940 or 1,945 μL of TRIS:HEPES (18:1) and was incubated in the presence of 50 μL of 2′,7′-dichlorofluorescein diacetate for 1 h at 37 °C. In order to quench the reaction, the mixture was chilled using an ice bath. The fluorescence was measured using a Shimadzu fluorometer (Japan; λex = 488 nm; λem = 525 nm). The results were expressed as nM DCF formed per mg protein/h.[33]
(§2) The protein concentration in homogenates was measured by the Bradford method.[29]

[3] = system: Wistar rats; experiment: Subacute toxicity: serum and urine glucose, urinary protein excretion; assay type: in vivo; conditions: for Filtered Load of Glucose / Fractional Excretion of Glucose / Serum Glucose / Urinary Glucose Excretion / Urinary Protein Excretion: rats, p.o., 14 days at 10% of LD50 (CCl4, APAP: once daily, 3 days), mean ± SEM, n = 6
Method: (§3) For toxicity tests, acclimatized rats were randomly allocated to 12 groups (n = 12 for the control and n = 6 for the rest groups). […] Meanwhile, the aforementioned vehicles (dose volume 2 mL/kg b.w.) were administered to 3 groups. […] The animals were then housed in individual metabolic cages to collect urine for a period of 6 h and then the volume was recorded. Afterward, blood samples were obtained and the serum was separated by centrifugation at 1,620 × g for 10 min at room temperature.
Serum and urine glucose concentration were calculated using GOD-PAP kits (RANDOX, Laboratories Ltd, UK). Urinary protein was quantified using the Bradford method.[29]
(§4) Serum and urinary creatinine were determined by the Jaffe method. With this value, evaluation was made of the fractional excretion of sodium (FES), fractional excretion of potassium (FEP), and fractional excretion of glucose.[30]^,[31] The GFR was calculated from clearance of endogenous creatinine using the conventional equation:where GFR (CCr) is the creatinine clearance rate (mL/min); UCr and SCr are the creatinine concentrations (mg/dL) in urine and serum, respectively; and φ is the urinary flow rate (UFR) (mL/min). To avoid the error from the tubular secretion of creatinine found in males, only female animals were used.
(§5) The levels of sodium and potassium were measured in urine and serum using a flame photometer (Corning 400, Medfield, United States). Calculation was made of the clearance, fractional excretion, and filtered load of sodium (FLS), filtered load of potassium (FLP), and filtered load of glucose (FLG) using the conventional equations:where CX is the clearance rate of X (mL/min), CCr is the creatinine clearance rate (mL/min), UX and SX are the […] concentrations of X, respectively, φ is the UFR (mL/min), FEX is the fractional excretion (%) of X, and FLX is the filtered load of X in μEq/min (Na^+ or K^+) or mg/min (glucose).

[4] = system: Wistar rats; experiment: Hepatic and renal lipid peroxidation (lipid-soluble fluorescence); assay type: in vivo; conditions: rats, p.o., 14 days at 10% of LD50 (CCl4, APAP: once daily, 3 days), mean ± SEM, n = 6; for Renal Lipoperoxidation: kidney; for Hepatic Lipoperoxidation: liver
Method: as §1
Lipid peroxidation (LPO) was evaluated by the formation of lipid-soluble fluorescence, as previously described. Briefly, kidney and liver tissues were homogenized in 3 and 5 mL of phosphate buffer (0.2 M, pH = 7.4), respectively. A volume of 1 mL (kidney) or 0.8 mL (liver) of the homogenates was added to 7 mL of chloroform-methanol (2:1, v/v), and after 15 s of vortex mixing, the resulting mixture was cooled using an ice bath for 30 min to allow for phase separation. The fluorescence of the organic phase was measured using a Shimadzu fluorometer (Japan; λex = 370 nm; λem = 430 nm), whose sensitivity was adjusted to 140 fluorescence units by using 1 μg/mL of quinine sulfate in 50 mM H2SO4. The results were expressed as relative fluorescence units per milligram of protein.[33]
as §2

[5] = system: Wistar rats; experiment: Subacute toxicity: glomerular filtration rate (creatinine clearance) and serum creatinine; assay type: in vivo; conditions: for Glomerular Filtration Rate / Serum Creatinine: rats, p.o., 14 days at 10% of LD50 (CCl4, APAP: once daily, 3 days), mean ± SEM, n = 6
Method: as §3, §4

[6] = system: NIH mice; experiment: Acute oral toxicity, median lethal dose (LD50); assay type: in vivo; conditions: for Category (GHS acute oral toxicity hazard category) / Hazard statement (GHS): based on oral LD50, according to GHS [39]; for Oral LD50: female NIH mice, single oral dose, 14 days observation
Method: All treatments were administrated orally (p.o.) according to the scheme mentioned below.
Acute toxicity tests were performed in order to measure the median lethal dose (LD50). After acclimatization, mice were randomly allocated to ten groups (n = 4), including the control group (e.g. water, Tween 80, or PO) and the experimental groups, each with a single dose of one of the IMPYs at 4 levels of dose (0.5, 1.0, 2.0, and 4.0 g/kg b.w.).
Animals were food deprived overnight prior to administration of the chemical compounds or vehicles, and food was returned 4 h after dosing. Animals had access to water ad libitum throughout the study.[27]^,[28]

[7] = system: Wistar rats; experiment: Subacute toxicity: water and electrolyte balance (osmolality, sodium, potassium, urinary flow); assay type: in vivo; conditions: for Filtered Load of Potassium / Filtered Load of Sodium / Fractional Excretion of Potassium / Fractional Excretion of Sodium / Serum Osmolality / Serum Potassium / Serum Sodium / U/S Osm ratio / Urinary Flow Rate / Urinary Potassium Excretion / Urinary Sodium Excretion: rats, p.o., 14 days at 10% of LD50 (CCl4, APAP: once daily, 3 days), mean ± SEM, n = 6
Method: as §3
Osmolality of serum and urine were assessed (in triplicate) by using a vapor pressure osmometer (Wescor 5500, Logan, United States). U/S ratio as well as osmolar (COsm) and free water clearances were calculated via conventional equations:where UOsm and SOsm are the osmolality values (mOsm/Kg) in urine and serum, respectively, and φ is the UFR (mL/min).
as §5

[8] = system: renal secretory pathway of organic anions; experiment: Active tubular secretion of organic acids (PAH uptake in kidney cortex slices); assay type: in vivo, rats; conditions: for PAH t/m ratio: kidney cortex slices, PAH 1 mM, 1 h, 25 °C, rats, p.o., 14 days at 10% of LD50 (CCl4, APAP: once daily, 3 days), mean ± SEM, n = 6
Method: as §1
p-Aminohippuric acid (PAH) was used as an indicator of the renal secretory pathway of organic anions. Kidneys were extracted and immediately submerged in Ringer solution (pH = 7.4 and mOsm = 290 ± 10 mOsm/kg) under constant bubbling with O2/CO2 (95/5%). The kidneys were decapsulated and slices of the kidney cortex were obtained, which were then incubated in Ringer solution containing PAH (1 mM) for 1 h at 25 °C under constant bubbling with O2/CO2 (95/5%). The levels of PAH were quantified with the Bratton-Marshall method and results were expressed as the PAH tissue/medium ratio (PAH t/m ratio).[31]^,[32]

[9] = in comparison to the control group

Row | SMILES | Alanine Aminotransferase [1] | Alkaline Phosphatase [1] | Renal ROS [2] | Hepatic ROS [2] | Filtered Load of Glucose [3] | Fractional Excretion of Glucose [3] | Serum Glucose [3] | Urinary Glucose Excretion [3] | Urinary Protein Excretion [3] | Renal Lipoperoxidation [4] | Hepatic Lipoperoxidation [4] | Glomerular Filtration Rate [5] | Serum Creatinine [5] | Category (GHS acute oral toxicity hazard category) [6] | Hazard statement (GHS) [6] | Oral LD50 [6] | Filtered Load of Potassium [7] | Filtered Load of Sodium [7] | Fractional Excretion of Potassium [7] | Fractional Excretion of Sodium [7] | further results
1 | CCOC(=O)c1cn2ccccc2n1 [Compound 1a, ethyl imidazo[1,2-a]pyridine-2-carboxylate] | 22.22 ± 1.69 U/L | 93.14 ± 11.91 U/L | 161.18 ± 27.84 nM de DCF/mg protein/h | 317.94 ± 25.65 nM de DCF/mg protein/h | 0.39 ± 0.17 mg/min | 0.04 ± 0.01% | 112.39 ± 4.92 mg/dL | 96.54 ± 29.03 ng/min | 0.56 ± 0.10 µg/min | 0.28 ± 0.03 URF/mg protein | 0.75 ± 0.04 URF/mg protein | 0.34 ± 0.14 mL/min | 0.80 ± 0.14 mg/dL | 5 | May be harmful if swallowed | 3.175 g/kg b.w. | 2.69 ± 1.19 µEq/min | 64.29 ± 26.43 µEq/min | 22.26 ± 6.39% | 0.74 ± 0.22% | FLG (filtered load of glucose), change in words ([3]; compared to control values): reduced; GFR, change in words [5, 9]: lower; Serum Osmolality [7]: 293.75 ± 1.88 mOsm/kg; Serum Potassium [7]: 6.57 ± 0.32 mEq/L; Serum Sodium [7]: 162.39 ± 5.03 mEq/L; U/S Osm ratio [7]: 3.02 ± 0.25; Urinary Flow Rate [7]: 4.17 ± 1.25 µL/min; Urinary Potassium Excretion [7]: 0.34 ± 0.06 µEq/min; Urinary Sodium Excretion [7]: 0.29 ± 0.08 µEq/min; PAH t/m ratio [8]: 2.51 ± 0.13
2 | CCOC(=O)c1nc2ccccn2c1[N+](=O)[O-] [Compound 1b, ethyl 3-nitroimidazo[1,2-a]pyridine-2-carboxylate] | 30.10 ± 2.99 U/L | 101.41 ± 16.30 U/L | 227.17 ± 21.01 nM de DCF/mg protein/h | 285.90 ± 37.33 nM de DCF/mg protein/h | 0.31 ± 0.04 mg/min | 0.05 ± 3.9 E-3% | 121.27 ± 7.88 mg/dL | 141.87 ± 18.46 ng/min | 0.57 ± 0.07 µg/min | 0.38 ± 0.07 URF/mg protein | 0.74 ± 0.07 URF/mg protein | 0.25 ± 0.03 mL/min | 1.38 ± 0.07 mg/dL | 5 | May be harmful if swallowed | >4.000 g/kg b.w. | 1.70 ± 0.21 µEq/min | 39.31 ± 4.28 µEq/min | 15.58 ± 3.10% | 0.85 ± 0.09% | FEG (fractional excretion of glucose), change in words ([3]; compared to control values): increased; FLG (filtered load of glucose), change in words ([3]; compared to control values): reduced; serum creatinine, change in words ([5]; compared with 1a and 3b): higher; GFR, change in words [5, 9]: lower; serum creatinine level, change in words [5, 9]: greater; FLS (filtered load of sodium), change in words ([7]; in comparison with the control group): decreased; Serum Osmolality [7]: 294.04 ± 0.88 mOsm/kg; Serum Potassium [7]: 6.74 ± 0.39 mEq/L; Serum Sodium [7]: 155.42 ± 3.63 mEq/L; U/S Osm ratio [7]: 2.54 ± 0.20; Urinary Flow Rate [7]: 4.54 ± 0.76 µL/min; Urinary Potassium Excretion [7]: 0.24 ± 0.03 µEq/min; Urinary Sodium Excretion [7]: 0.34 ± 0.05 µEq/min; PAH t/m ratio [8]: 2.00 ± 0.13
3 | N#Cc1cn2ccccc2n1 [Compound 2a, imidazo[1,2-a]pyridine-2-carbonitrile] | 42.68 ± 2.04 U/L | 104.44 ± 19.76 U/L | 171.33 ± 22.04 nM de DCF/mg protein/h | 285.53 ± 42.87 nM de DCF/mg protein/h | 0.90 ± 0.29 mg/min | 0.02 ± 3.9E-3% | 103.46 ± 3.16 mg/dL | 136.89 ± 32.82 ng/min | 0.65 ± 0.13 µg/min | 0.30 ± 0.02 URF/mg protein | 0.71 ± 0.04 URF/mg protein | 0.86 ± 0.28 mL/min | 0.66 ± 0.13 mg/dL | 4 | Harmful if swallowed | 0.794 g/kg b.w. | 5.07 ± 1.44 µEq/min | 124.49 ± 40.90 µEq/min | 13.55 ± 1.23% | 0.55 ± 0.13% | Serum Osmolality [7]: 291.74 ± 1.34 mOsm/kg; Serum Potassium [7]: 6.03 ± 0.31 mEq/L; Serum Sodium [7]: 142.94 ± 3.88 mEq/L; U/S Osm ratio [7]: 3.30 ± 0.22; Urinary Flow Rate [7]: 6.44 ± 1.39 µL/min; Urinary Potassium Excretion [7]: 0.64 ± 0.16 µEq/min; Urinary Sodium Excretion [7]: 0.51 ± 0.09 µEq/min; PAH t/m ratio [8]: 1.07 ± 0.11; PAH t/m ratio, change in words ([8]; versus control (2a also versus Tween 80 and 2b)): decreased
